Test results as given in patent publication US20060019907A1, “Guggulsterone: an inhibitor of nuclear factor - kappaB and IkappaBalpha kinase activation and uses thereof” (Research Development Foundation, priority 2004, published 2006).

B1: NF-κB p50 subunit (NF-κB1) in nuclear extracts of TNF-treated human H1299 cells (other, UniProt P19838 1-433, looked up)
chain: MAEDDPYLGRPEQMFHLDPSLTHTIFNPEVFQPQMALPTDGPYLQILEQPKQRGFRFRYVCEGPSHGGLPGASSEKNKKSYPQVKICNYVGPAKVIVQLVTNGKNIHLHAHSLVGKHCEDGICTVTAGPKDMVVGFANLGILHVTKKKVFETLEARMTEACIRGYNPGLLVHPDLAYLQAEGGGDRQLGDREKELIRQAALQQTKEMDLSVVRLMFTAFLPDSTGSFTRRLEPVVSDAIYDSKAPNASNLKIVRMDRTAGCVTGGEEIYLLCDKVQKDDIQIRFYEEEENGGVWEGFGDFSPTDVHRQFAIVFKTPKYKDINITKPASVFVQLRRKSDLETSEPKPFLYYPEIKDKEEVQRKRQKLMPNFSDSFGGGSGAGAGGGGMFGSGGGGGGTGSTGPGYSFPHYGFPTYGGITFHPGTTKSNAGMKHG

Experiments:
U937 cells = experiment: Cytotoxicity (MTT uptake) of guggulsterone with JNK inhibitor; format: cell-based, human; conditions: 72 h
Description: Cytotoxicity assay. The cytotoxic effects of guggulsterone was determined by the MTT uptake method. Briefly, 5000 cells were incubated with guggulsterone in triplicate in a 96-well plate at 37° C. MTT solution was then added to each well. After a 2-h incubation at 37° C., extraction buffer (20% SDS, 50% dimethylformamide) was added, the cells were incubated overnight at 37° C., and the OD was then measured at 570 nm using a 96-well multiscanner (Dynex Technologies, MRX Revelation, Chantilly, Va.).

[1] = target: NF-κB p65 subunit (RelA) in nuclear extracts of TNF-treated human H1299 cells (human, UniProt Q04206 1-551); experiment: EMSA supershift assay, nuclear extracts of TNF-treated H1299 cells
Description: Nuclear extracts were prepared and tested for NF-κB activation. […] H1299 cells (2×10⁶/ml) were pre-incubated with 50 μM guggulsterone for the indicated times at 37° C. and then treated with 0.1 nM TNF for 30 min at 37° C. Nuclear extracts were prepared and then tested for NF-κB activation. […] Nuclear extracts from H1299 cells (2×10⁶/ml) treated or not treated with 0.1 nM TNF for 30 min were incubated with the antibodies indicated for 30 min at room temperature, and the complex was analyzed by supershift assay. […] Nuclear extracts from H1299 cells (2×10⁶/ml) treated or not treated with 0.1 nM TNF for 30 min were treated with the indicated concentrations of guggulsterone for 4 hours at room temperature and then assayed for DNA binding by EMSA.
NF-κB Activation: To determine NF-κB activation, EMSA was carried out as previously described (Chaturvedi et al., 2000). […] For supershift assays, nuclear extracts prepared from TNF-treated cells were incubated with antibodies against either the p50 or the p65 subunit of NF-κB for 30 min at room temperature before the complex was analyzed by EMSA. The dried gels were visualized, and radioactive bands were quantitated using a PHOSPHORIMAGER™ (Molecular Dynamics, Sunnyvale, Calif.) using IMAGEQUANT™ software.

NF-κB p65 subunit (RelA) in nuclear extracts of TNF-treated human H1299 cells, sequence (Q04206 whole entry): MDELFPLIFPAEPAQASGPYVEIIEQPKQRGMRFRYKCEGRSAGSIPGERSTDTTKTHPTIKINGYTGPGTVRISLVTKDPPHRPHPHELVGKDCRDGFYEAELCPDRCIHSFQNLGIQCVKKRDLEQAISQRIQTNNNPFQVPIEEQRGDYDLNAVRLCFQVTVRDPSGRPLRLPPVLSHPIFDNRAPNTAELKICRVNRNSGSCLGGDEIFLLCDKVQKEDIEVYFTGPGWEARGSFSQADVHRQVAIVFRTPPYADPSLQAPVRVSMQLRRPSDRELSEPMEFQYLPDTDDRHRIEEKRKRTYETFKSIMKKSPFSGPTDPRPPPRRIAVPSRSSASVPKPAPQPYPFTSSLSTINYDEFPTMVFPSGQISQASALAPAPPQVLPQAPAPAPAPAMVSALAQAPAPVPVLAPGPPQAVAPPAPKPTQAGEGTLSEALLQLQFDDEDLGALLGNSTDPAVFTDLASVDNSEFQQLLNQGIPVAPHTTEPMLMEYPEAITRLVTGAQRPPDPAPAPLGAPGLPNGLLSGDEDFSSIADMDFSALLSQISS

Molecule | guggulsterone induced cytotoxicity in combination with JNK inhibitor (U937 cells) | binding result [1]
Oc1c2ccccc2c2c3c(cccc13)N=N2 [SP600125] | blocks guggulsterone induced cytotoxicity | –
B1 | – | binds
